From patent publication US20230190736A1, “SMALL MOLECULE THERAPEUTICS FOR THE TREATMENT OF VIRAL INFECTIONS” (priority 2020, published 2023)
Read-outs that look alike come from different tables or passages of the source.

Experiments:
Format in all cases: cell-based
[1] = test system: SARS-CoV-2; details: Compound A 50 nM, Compound B 50 nM; higher is better
[2] = test system: SARS-CoV-2; assay: microbe, parasite or virus in culture; details: Severe acute respiratory syndrome coronavirus 2; secondary screen, doses 2.5, 25, 250 and 500 nM, immunofluorescent assay; read-out: IC50 anti SARS-CoV-2 activity
[3] = test system: SARS-CoV-2; assay: mTORC1 inhibition of SARS-CoV-2 replication in Vero cells (fluorescence microscopy); details: 25 nM, 72 hours
[4] = test system: SARS-CoV-2; assay: microbe, parasite or virus in culture
[5] = test system: human lung stem cell derived Air-liquid interface (ALI) cells; assay: Cell Titer glo viability assay in air-liquid interface (ALI) cultures; details: up to 50 μM, 48 hours post treatment
Procedure: Series 1 and 2 are the values from independent wells.
Berzosertib was tested in a primary human lung tissue culture system consisting of mucociliary air-liquid interface (ALI) cultures derived from primary human proximal airway basal stem cells (ABSCs). 24-well 6.5 mm trans-wells with […] polyester membrane inserts were used for culturing ALI cells. 500 μl ALI media (PneumaCult-ALI Medium, […] Technologies) was used in the basal chamber for ALI cultures and cells were cultured at 37° C. with 5% CO2. […] Control cells were treated with the solvent DMSO. 48 hours post drug treatment, the cells were subjected to viability assay using Cell Titer glo kit.

[6] = test system: SARS-CoV-2; details: 10 um, 1 hour pretreatment, MOI 1, 48 hpi

In the case of `OCc1cc(C(O)CNCCCCCCOCCCCc2ccccc2)ccc1O` (stereo not drawn) [Empty-Salmeterol, Salmeterol], the “Cell Number: Cell Nuclei Counts” value [1] is reported as 8193.

With `CNC(=O)c1cccc(-c2ccc3c(N4CCOC[C@@H]4C)nc(N4CCOC[C@@H]4C)nc3n2)c1` [Vistusertib] the IC50 [2] was 25 nM and the “presence of viral dsRNA” value [3] was “almost completely abolished”.

With `CNCc1ccc(-c2cc(-c3nc(-c4ccc(S(=O)(=O)C(C)C)cc4)cnc3N)on2)cc1` [Berzosertib] the “inhibition of virus positive cells” value [4] was “over 70%”, the IC50 ([4]; Severe acute respiratory syndrome coronavirus 2, read-out: IC50 inhibiting SARS-CoV-2 determined by RTQPCR) was 40 nM and the IC50 [2] was 25 nM. For the same compound, the “effect on cell viability” value [5] was “did not have any deleterious effect on cell viability” and the “effect on cell viability” value ([5]; listed as berzosertib) was “non-toxic and safe”.

With `COc1ccc(CC(C)NCC(O)c2ccc(O)c(NC=O)c2)cc1` (stereo not drawn) [Empty-Formoterol, Formoterol] the “Cell Number: Cell Nuclei Counts” value [1] was 8390.

In the case of `Cc1cn(-c2cc(NC(=O)c3ccc(C)c(Nc4nccc(-c5cccnc5)n4)c3)cc(C(F)(F)F)c2)cn1` [Nilotinib], the IC50 [2] is reported as 250 to 500 nM.

In the case of `CCN(CCO)CCCC(C)Nc1ccnc2cc(Cl)ccc12` (stereo not drawn) [hydroxychloroquine], the “inhibition of SARS-CoV-2 infection (dsRNA immunostaining)” value [6] is reported as “efficiently inhibited SARS-CoV-2 infection” and the “inhibition of SARS-CoV-2 infection (dsRNA immunostaining)” value ([6]; listed as HQ) is reported as “effectively blocked SARS-CoV-2 infection”.
